# Source: ChEMBL document CHEMBL4507274 (2021)
# Key:
# [1] = target: T1, Mitogen-activated protein kinase 13 (Homo sapiens) (UniProt O15264); test: SAPK4 (h) Upstate kinase activity assay; conditions: Compound concentration 10.0 uM
# T1 sequence (whole entry): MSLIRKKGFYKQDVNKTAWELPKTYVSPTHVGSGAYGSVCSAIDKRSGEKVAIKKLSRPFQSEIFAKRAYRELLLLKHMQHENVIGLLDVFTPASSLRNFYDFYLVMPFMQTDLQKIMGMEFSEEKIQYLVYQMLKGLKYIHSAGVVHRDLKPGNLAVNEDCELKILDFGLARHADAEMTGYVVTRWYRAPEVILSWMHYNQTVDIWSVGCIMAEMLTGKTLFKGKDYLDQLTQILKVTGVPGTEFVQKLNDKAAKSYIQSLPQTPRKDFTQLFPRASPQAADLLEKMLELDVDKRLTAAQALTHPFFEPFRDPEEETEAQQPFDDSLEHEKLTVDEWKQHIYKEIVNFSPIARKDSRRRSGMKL
# [2] = target: ALK tyrosine kinase receptor (Homo sapiens) (UniProt Q9UM73); test: ALK (h) Upstate kinase activity assay; conditions: Compound concentration 10.0 uM
# MCF7 = test: Breast MCF-7 cell line MDS Pharma Services Proliferation Assay; format: functional, cell-based, Homo sapiens
# [3] = target: Rho-associated protein kinase 2 (Homo sapiens, UniProt O75116); test: Biochemical ROCK2 assay
# Sequence of Rho-associated protein kinase 2 (O75116 whole entry): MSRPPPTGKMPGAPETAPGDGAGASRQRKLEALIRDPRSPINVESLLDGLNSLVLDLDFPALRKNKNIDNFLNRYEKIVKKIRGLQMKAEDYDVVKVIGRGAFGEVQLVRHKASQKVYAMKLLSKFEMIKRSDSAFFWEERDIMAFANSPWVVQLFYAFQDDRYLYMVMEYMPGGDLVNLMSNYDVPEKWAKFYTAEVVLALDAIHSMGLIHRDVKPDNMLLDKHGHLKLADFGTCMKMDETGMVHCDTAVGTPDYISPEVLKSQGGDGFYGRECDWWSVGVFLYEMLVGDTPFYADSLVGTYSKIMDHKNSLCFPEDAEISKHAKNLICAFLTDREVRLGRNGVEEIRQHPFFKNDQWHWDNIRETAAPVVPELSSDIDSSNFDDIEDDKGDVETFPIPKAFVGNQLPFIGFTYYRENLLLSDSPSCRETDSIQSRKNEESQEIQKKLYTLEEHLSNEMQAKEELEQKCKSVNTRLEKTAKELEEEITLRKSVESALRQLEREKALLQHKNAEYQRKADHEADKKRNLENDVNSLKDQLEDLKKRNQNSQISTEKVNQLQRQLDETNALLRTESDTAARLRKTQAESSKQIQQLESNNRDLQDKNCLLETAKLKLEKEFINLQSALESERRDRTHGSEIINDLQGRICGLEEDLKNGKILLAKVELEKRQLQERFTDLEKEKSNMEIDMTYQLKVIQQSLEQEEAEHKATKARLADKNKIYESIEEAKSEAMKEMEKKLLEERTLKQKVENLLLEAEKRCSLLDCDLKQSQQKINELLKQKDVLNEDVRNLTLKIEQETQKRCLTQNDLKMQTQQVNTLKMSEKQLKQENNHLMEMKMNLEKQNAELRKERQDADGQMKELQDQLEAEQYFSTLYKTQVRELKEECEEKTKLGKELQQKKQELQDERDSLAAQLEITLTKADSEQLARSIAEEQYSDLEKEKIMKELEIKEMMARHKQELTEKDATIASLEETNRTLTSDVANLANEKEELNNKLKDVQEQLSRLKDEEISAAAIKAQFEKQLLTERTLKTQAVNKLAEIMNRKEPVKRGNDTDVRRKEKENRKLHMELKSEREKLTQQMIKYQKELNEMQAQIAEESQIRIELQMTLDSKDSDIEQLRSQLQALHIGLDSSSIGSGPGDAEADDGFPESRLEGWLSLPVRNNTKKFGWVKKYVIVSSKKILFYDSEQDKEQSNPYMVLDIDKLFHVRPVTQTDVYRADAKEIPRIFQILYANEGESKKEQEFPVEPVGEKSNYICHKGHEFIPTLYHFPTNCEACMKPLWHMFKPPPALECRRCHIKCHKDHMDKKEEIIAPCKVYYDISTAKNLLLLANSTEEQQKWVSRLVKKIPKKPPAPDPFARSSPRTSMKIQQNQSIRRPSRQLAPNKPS
# Sequence of ALK tyrosine kinase receptor (Homo sapiens) (Q9UM73 19-1620 limits assumed): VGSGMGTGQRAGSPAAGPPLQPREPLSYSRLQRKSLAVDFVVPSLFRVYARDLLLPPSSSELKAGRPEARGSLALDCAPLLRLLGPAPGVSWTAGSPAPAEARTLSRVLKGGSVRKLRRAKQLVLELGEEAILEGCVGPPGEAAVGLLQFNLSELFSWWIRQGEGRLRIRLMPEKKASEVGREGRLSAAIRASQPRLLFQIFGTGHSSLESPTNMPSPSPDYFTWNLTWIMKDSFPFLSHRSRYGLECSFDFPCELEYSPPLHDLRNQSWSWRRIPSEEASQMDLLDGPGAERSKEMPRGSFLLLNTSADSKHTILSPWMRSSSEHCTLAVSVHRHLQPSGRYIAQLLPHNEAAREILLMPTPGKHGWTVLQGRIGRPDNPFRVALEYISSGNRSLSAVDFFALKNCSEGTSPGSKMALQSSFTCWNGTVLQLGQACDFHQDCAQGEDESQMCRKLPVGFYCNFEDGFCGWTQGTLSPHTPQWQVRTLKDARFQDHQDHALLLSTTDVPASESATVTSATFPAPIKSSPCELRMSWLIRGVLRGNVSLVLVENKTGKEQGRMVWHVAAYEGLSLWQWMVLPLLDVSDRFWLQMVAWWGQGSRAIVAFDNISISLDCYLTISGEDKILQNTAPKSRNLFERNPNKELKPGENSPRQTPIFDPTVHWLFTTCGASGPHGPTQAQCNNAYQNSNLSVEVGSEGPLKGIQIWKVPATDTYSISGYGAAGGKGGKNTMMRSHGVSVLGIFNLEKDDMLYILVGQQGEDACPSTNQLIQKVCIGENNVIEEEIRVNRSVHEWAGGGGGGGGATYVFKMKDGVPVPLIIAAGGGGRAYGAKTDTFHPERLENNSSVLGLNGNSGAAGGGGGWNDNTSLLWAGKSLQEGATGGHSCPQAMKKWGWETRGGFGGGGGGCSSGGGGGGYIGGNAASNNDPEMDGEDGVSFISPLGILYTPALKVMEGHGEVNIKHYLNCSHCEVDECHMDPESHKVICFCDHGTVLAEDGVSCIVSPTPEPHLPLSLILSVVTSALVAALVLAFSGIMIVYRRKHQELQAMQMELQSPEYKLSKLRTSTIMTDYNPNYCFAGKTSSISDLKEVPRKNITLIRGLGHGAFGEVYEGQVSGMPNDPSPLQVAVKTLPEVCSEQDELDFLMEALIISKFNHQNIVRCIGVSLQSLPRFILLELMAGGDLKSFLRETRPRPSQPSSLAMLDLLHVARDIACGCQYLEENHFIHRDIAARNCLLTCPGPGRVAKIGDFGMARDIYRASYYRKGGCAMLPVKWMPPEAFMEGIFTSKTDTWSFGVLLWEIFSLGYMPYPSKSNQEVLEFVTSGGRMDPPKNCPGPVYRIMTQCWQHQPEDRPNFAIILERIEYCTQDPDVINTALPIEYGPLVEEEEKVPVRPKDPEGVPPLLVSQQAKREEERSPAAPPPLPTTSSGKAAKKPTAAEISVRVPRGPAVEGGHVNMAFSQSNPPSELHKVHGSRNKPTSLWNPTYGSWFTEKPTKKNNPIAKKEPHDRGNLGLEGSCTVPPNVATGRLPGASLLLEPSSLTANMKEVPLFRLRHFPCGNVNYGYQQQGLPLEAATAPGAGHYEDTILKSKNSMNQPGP
Structure (SMILES),inhibition [1],inhibition [2],"TGI (MCF7; Homo sapiens, MCF7)","CC50 (MCF7; Homo sapiens, MCF7, read-out: LC50 (the source's name))",Mean % growth (n = 2) for 1.0 µM probe concentration (MCF7; ± SEM 1 % growth),Mean % growth (n = 2) for 10.0 µM probe concentration (MCF7; ± SEM 2 % growth),Mean % growth (n = 2) for 0.01 µM probe concentration (MCF7; ± SEM 3 % growth),Mean % growth (n = 2) for 100.0 µM probe concentration (MCF7; ± SEM 4 % growth),Mean % growth (n = 2) for 0.1 µM probe concentration (MCF7; ± SEM 9 % growth),IC50 [3]
Cc1c[nH]c2nccc(Oc3c(F)cc(Nc4cc(Cl)nc(N)n4)cc3F)c12 [BAY-549],16%,78%,> 100 µM,> 100 µM,87%,57%,92%,6%,89%,–
Cn1cc(Cl)c2c(Oc3c(F)cc(Nc4cc(Cl)nc(N)n4)cc3F)ccnc21 [BAY-4900],–,–,–,–,–,–,–,–,–,17.7 µM (not active)
